In doi:10.1101/2021.09.30.462449v1 (biorxiv, 2021):

What was measured:
Test in all cases: biochemical
Conditions in all cases: read-out: % inhibition mean (Z'Lyte)
[1] = target: RPS6KB2 (p70S6Kb) (Homo sapiens, UniProt Q9UBS0)
[2] = target: MET (cMet) (Homo sapiens, UniProt P08581)
[3] = target: JAK2 JH1 JH2 (Homo sapiens, UniProt O60674)
[4] = target: MAPK3 (ERK1) (Homo sapiens, UniProt P27361)
[5] = target: AMPK A1/B1/G1 (Homo sapiens, UniProt Q13131)
[6] = target: PRKCN (PKD3) (Homo sapiens, UniProt O94806)
[7] = target: JAK1 (Homo sapiens, UniProt P23458)
[8] = target: MAP4K5 (KHS1) (Homo sapiens, UniProt Q9Y4K4)
[9] = target: DCAMKL1 (DCLK1) (Homo sapiens, UniProt O15075)
[10] = target: PIM2 (Homo sapiens, UniProt Q9P1W9)
[11] = target: SGK (SGK1) (Homo sapiens, UniProt O00141)
[12] = target: KSR2 (Homo sapiens, UniProt Q6VAB6)
[13] = target: NTRK3 (TRKC) (Homo sapiens, UniProt Q16288)
[14] = target: PHKG2 (Homo sapiens, UniProt P15735)
[15] = target: MAPKAPK3 (Homo sapiens, UniProt Q16644)
[16] = target: PEAK1 (Homo sapiens, UniProt Q9H792)
[17] = target: STK4 (MST1) (Homo sapiens, UniProt Q13043)
[18] = target: EPHA1 (Homo sapiens, UniProt P21709)
[19] = target: PRKD2 (PKD2) (Homo sapiens, UniProt Q9BZL6)
[20] = target: MAPK1 (ERK2) (Homo sapiens, UniProt P28482)
[21] = target: HIPK4 (Homo sapiens, UniProt Q8NE63)
[22] = target: MAP4K4 (HGK) (Homo sapiens, UniProt O95819)
[23] = target: MAP3K8 (COT) (Homo sapiens, UniProt P41279)
[24] = target: EGFR (ErbB1) T790M C797S L858R (Homo sapiens, UniProt P00533, C797S/L858R/T790M)
[25] = target: ABL2 (Arg) (Homo sapiens, UniProt P42684)
[26] = target: NEK6 (Homo sapiens, UniProt Q9HC98)
[27] = target: NTRK2 (TRKB) (Homo sapiens, UniProt Q16620)
[28] = target: RPS6KA5 (MSK1) (Homo sapiens, UniProt O75582)

HIPK4, sequence (Q8NE63 whole entry): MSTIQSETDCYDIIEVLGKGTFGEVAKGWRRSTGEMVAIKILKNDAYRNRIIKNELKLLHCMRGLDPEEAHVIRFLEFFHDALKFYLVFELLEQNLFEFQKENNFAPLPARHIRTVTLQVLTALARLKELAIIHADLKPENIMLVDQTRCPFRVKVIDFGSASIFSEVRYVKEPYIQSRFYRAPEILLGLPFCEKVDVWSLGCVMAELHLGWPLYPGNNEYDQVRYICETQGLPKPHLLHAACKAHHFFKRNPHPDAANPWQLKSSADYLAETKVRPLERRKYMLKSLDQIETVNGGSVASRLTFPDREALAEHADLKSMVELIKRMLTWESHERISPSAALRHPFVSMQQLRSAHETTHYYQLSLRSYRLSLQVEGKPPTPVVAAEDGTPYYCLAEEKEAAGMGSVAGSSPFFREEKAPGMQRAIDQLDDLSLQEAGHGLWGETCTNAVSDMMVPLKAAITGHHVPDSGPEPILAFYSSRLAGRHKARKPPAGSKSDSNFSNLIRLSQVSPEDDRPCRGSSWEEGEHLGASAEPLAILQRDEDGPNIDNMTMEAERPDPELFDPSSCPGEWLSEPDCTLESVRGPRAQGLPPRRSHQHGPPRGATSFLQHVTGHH
MAPKAPK3, sequence (Q16644 whole entry): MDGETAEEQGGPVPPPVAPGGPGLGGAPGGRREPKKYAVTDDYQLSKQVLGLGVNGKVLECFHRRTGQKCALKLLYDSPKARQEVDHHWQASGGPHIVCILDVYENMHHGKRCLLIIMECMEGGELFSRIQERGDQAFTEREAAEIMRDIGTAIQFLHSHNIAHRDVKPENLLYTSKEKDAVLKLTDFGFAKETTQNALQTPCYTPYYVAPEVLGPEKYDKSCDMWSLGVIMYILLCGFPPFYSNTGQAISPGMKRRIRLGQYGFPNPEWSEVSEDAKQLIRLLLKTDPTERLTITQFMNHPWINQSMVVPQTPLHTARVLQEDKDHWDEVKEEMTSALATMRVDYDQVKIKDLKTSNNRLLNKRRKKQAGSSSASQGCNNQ
AMPK A1/B1/G1, sequence (Q13131 whole entry): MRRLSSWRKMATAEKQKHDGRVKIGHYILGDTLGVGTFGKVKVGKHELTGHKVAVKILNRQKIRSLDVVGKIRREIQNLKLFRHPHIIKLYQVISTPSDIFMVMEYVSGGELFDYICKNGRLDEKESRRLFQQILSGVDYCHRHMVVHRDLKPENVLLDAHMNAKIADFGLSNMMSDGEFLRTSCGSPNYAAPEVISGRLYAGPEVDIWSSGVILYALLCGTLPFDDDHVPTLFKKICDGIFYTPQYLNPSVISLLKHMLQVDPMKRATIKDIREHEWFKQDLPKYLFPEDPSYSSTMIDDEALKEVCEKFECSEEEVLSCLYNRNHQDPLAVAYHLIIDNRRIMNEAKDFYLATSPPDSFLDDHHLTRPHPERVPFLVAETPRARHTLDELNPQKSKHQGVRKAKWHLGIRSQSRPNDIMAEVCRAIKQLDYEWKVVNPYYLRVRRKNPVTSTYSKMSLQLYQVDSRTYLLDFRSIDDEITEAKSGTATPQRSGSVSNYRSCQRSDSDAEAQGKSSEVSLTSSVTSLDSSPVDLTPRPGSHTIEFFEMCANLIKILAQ
AMPK A1/B1/G1, sequence (P54619 whole entry partner): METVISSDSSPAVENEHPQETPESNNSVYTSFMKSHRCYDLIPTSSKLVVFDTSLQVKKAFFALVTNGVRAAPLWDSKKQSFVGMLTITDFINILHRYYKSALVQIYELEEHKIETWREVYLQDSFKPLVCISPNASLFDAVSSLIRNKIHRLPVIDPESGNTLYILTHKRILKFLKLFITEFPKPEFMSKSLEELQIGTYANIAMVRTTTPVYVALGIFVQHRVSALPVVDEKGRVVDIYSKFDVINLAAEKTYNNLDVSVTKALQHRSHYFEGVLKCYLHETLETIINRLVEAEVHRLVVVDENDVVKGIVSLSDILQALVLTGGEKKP
AMPK A1/B1/G1, sequence (Q9Y478 whole entry partner): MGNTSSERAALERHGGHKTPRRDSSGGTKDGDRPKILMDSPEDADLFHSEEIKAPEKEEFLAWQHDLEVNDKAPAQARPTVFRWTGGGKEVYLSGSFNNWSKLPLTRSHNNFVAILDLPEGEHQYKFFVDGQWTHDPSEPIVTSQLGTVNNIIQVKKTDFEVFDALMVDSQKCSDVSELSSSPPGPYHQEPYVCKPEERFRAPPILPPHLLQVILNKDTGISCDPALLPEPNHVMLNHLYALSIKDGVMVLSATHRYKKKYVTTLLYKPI
RPS6KB2 (p70S6Kb), sequence (Q9UBS0 whole entry): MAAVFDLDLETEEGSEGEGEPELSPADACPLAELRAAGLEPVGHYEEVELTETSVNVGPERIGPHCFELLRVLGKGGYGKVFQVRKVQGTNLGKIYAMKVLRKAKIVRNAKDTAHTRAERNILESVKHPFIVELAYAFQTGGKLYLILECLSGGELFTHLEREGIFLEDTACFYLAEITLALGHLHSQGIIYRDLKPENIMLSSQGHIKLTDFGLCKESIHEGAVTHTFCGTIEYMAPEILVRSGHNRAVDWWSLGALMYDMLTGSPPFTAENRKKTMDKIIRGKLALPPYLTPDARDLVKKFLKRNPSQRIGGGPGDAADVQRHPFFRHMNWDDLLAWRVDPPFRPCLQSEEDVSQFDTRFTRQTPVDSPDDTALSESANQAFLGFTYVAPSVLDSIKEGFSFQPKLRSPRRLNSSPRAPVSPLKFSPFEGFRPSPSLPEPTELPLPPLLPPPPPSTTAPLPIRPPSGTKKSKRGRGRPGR
MAP3K8 (COT), sequence (P41279 whole entry): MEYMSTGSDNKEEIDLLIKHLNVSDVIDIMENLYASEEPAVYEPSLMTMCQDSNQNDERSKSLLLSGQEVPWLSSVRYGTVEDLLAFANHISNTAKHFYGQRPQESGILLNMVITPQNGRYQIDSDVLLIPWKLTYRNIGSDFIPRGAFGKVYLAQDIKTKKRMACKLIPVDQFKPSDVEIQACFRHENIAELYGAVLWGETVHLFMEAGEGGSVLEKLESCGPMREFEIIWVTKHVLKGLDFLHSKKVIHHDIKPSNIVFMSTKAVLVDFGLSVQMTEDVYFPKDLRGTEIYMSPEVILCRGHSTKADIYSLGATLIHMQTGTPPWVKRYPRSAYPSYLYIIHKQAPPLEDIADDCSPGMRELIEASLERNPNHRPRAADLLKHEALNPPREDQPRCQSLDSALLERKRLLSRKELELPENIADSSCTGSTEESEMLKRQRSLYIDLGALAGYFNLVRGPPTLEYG
JAK2 JH1 JH2, sequence (O60674 whole entry): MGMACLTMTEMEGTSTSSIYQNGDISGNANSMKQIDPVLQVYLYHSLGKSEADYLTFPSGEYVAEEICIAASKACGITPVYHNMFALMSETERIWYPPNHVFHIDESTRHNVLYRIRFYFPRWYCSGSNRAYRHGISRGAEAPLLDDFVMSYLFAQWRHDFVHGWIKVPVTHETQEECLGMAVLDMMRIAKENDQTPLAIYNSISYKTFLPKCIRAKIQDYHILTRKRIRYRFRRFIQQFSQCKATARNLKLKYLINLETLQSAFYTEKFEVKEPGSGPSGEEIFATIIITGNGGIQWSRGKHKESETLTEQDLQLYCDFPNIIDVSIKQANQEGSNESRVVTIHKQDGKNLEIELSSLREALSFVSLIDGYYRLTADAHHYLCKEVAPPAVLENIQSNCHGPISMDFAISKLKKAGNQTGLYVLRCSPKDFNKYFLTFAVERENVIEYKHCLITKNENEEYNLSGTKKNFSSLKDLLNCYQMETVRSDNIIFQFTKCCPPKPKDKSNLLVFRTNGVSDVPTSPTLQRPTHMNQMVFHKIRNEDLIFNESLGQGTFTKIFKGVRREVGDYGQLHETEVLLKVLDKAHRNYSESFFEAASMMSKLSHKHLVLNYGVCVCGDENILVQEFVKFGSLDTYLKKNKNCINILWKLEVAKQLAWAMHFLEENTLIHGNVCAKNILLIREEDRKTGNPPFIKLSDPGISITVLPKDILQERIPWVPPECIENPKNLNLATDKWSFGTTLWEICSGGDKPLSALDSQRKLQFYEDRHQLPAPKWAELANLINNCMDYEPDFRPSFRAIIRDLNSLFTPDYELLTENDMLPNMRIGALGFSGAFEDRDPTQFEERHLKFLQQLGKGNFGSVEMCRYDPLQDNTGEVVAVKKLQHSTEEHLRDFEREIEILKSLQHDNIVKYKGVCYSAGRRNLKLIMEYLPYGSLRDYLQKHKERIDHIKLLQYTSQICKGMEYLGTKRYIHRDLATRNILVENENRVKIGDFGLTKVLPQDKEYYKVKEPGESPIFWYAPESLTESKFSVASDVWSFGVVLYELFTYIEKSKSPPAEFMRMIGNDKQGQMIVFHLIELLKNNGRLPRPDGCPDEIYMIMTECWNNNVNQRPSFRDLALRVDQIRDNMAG
NEK6, sequence (Q9HC98 whole entry): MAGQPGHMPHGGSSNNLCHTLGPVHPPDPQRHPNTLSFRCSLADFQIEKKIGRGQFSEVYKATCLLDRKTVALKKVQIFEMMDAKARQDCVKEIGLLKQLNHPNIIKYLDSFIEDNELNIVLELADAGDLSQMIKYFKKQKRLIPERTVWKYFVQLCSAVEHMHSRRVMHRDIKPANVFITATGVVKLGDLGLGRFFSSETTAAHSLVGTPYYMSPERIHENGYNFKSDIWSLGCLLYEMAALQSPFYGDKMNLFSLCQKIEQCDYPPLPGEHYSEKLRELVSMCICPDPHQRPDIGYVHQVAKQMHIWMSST
SGK (SGK1), sequence (O00141 whole entry): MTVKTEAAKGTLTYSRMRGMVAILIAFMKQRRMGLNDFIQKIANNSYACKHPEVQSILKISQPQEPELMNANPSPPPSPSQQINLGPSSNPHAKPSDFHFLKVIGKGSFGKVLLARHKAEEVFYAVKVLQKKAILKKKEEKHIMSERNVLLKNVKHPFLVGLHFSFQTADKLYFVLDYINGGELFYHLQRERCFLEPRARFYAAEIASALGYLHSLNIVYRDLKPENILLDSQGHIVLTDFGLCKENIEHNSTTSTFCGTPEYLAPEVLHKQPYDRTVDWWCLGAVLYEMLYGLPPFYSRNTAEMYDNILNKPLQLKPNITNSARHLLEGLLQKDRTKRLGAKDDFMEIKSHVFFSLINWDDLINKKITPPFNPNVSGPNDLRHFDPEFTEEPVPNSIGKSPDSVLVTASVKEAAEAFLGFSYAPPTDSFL

`COc1ccc2nc3cc(Cl)ccc3c(Nc3cc(CN4CCCC4)c(O)c(CN4CCCC4)c3)c2n1` [Pyronaridine, 4-[(7-Chloro-2-methoxybenzo[b][1,5]naphthyridin-10-yl)amino]-2,6-bis(1-pyrrolidinylmethyl)phenol phosphate (1:4)] showed an inhibition at 1 µM [1] of -4%, an inhibition at 1 µM [2] of -1% and an inhibition at 1 µM [3] of -3%. It also gave an inhibition at 1 µM [4] of 6%, an inhibition at 1 µM [5] of 5% and an inhibition at 1 µM [6] of 8%. The inhibition at 1 µM [7] was 0%, the inhibition at 1 µM [8] was 5% and the inhibition at 1 µM [9] was 0%. The inhibition at 1 µM [10] was -4%, the inhibition at 1 µM [11] was 4% and the inhibition at 1 µM [12] was 2%. It also gave an inhibition at 1 µM [13] of 2%, an inhibition at 1 µM [14] of -2% and an inhibition at 1 µM [15] of 17%. It also gave an inhibition at 1 µM [16] of 1%, an inhibition at 1 µM [17] of -5% and an inhibition at 1 µM [18] of 1%. It also gave an inhibition at 1 µM [19] of -4%, an inhibition at 1 µM [20] of -1% and an inhibition at 1 µM [21] of 5%. The inhibition at 1 µM [22] was 1%, the inhibition at 1 µM [23] was -6% and the inhibition at 1 µM [24] was 2%. It also gave an inhibition at 1 µM [25] of 2%, an inhibition at 1 µM [26] of -3% and an inhibition at 1 µM [27] of 1%. For the same compound, the inhibition at 1 µM [28] was 2%.
